From PubChem BioAssay AID2060903 (Molecular Pharmacology Branch, DTP, NCI, 2025)
pIC50: −log10 of the molar value.

Tested on: 377384-186-R-J1-PDC complex spheroid viability
Assay: Anticancer human tumor 377384-186-R-J1-PDC patient-derived pancreatic carcinoma cell line growth inhibition [RAS]
Conditions: for pIC50: curve of first compound; for viability, T/C: stronger effect = lower value
Outline: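 Tumour cells grown as complex spheroids with HUVEC endothelial cells and mesenchymal stem cells, treated with RAS pathway inhibitor combinations. Each agent spans half-log steps from near clinical Cmax, or 10 microM where Cmax is unknown.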
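Note: spheroids exposed to compounds for seven days before readout.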

**Q.** CC(Nc1ccc2c(c1)OCCn1cc(N3C(=O)OCC3C(F)F)nc1-2)C(N)=O (centres undefined) + C=CC(=O)N1CCN(c2nc(OCC3CCCN3C)nc3c(F)c(-c4nc(N)cc(C)c4C(F)(F)F)c(Cl)cc23)C(C)C1 was tested. Which pIC50 (second compound 0.00316 µM) did it give?
**A.** 6.13

**Q.** And the pIC50 (second compound 0.01 µM)?
**A.** 6.24

**Q.** And the pIC50 (second compound 0.0316 µM)?
**A.** 6.35

**Q.** And the pIC50 (second compound 0.1 µM)?
**A.** 6.11

**Q.** And the pIC50 (second compound 0.316 µM)?
**A.** 6.59

**Q.** What about the pIC50 (second compound 1 µM) of the same compound?
**A.** 6.19

**Q.** What about the viability, T/C (second compound 0.00316 µM, first compound 0.0316 µM) of the same compound?
**A.** 73.4%

**Q.** What about the viability, T/C (second compound 0.00316 µM, first compound 0.1 µM) of the same compound?
**A.** 72.2%

**Q.** What about the viability, T/C (second compound 0.00316 µM, first compound 0.316 µM) of the same compound?
**A.** 52.8%

**Q.** What about the viability, T/C (second compound 0.00316 µM, first compound 1 µM) of the same compound?
**A.** 48.1%

**Q.** What about the viability, T/C (second compound 0.00316 µM, first compound 3.16 µM) of the same compound?
**A.** 38.4%

**Q.** What about the viability, T/C (second compound 0.00316 µM, first compound 10 µM) of the same compound?
**A.** 28.4%

**Q.** What about the viability, T/C (second compound 0.01 µM, first compound 0.0316 µM) of the same compound?
**A.** 76.8%

**Q.** And the viability, T/C (second compound 0.01 µM, first compound 0.1 µM)?
**A.** 63.5%

**Q.** And the viability, T/C (second compound 0.01 µM, first compound 0.316 µM)?
**A.** 54.8%

**Q.** What about the viability, T/C (second compound 0.01 µM, first compound 1 µM) of the same compound?
**A.** 46.6%

**Q.** And the viability, T/C (second compound 0.01 µM, first compound 3.16 µM)?
**A.** 37.9%

**Q.** And the viability, T/C (second compound 0.01 µM, first compound 10 µM)?
**A.** 32.8%

**Q.** What about the viability, T/C (second compound 0.0316 µM, first compound 0.0316 µM) of the same compound?
**A.** 86.2%

**Q.** What about the viability, T/C (second compound 0.0316 µM, first compound 0.1 µM) of the same compound?
**A.** 68.2%

**Q.** What about the viability, T/C (second compound 0.0316 µM, first compound 0.316 µM) of the same compound?
**A.** 55.7%

**Q.** And the viability, T/C (second compound 0.0316 µM, first compound 1 µM)?
**A.** 40.3%

**Q.** What about the viability, T/C (second compound 0.0316 µM, first compound 3.16 µM) of the same compound?
**A.** 34.2%

**Q.** And the viability, T/C (second compound 0.0316 µM, first compound 10 µM)?
**A.** 32.1%

**Q.** What about the viability, T/C (second compound 0.1 µM, first compound 0.0316 µM) of the same compound?
**A.** 78.9%

**Q.** And the viability, T/C (second compound 0.1 µM, first compound 0.1 µM)?
**A.** 73.3%

**Q.** And the viability, T/C (second compound 0.1 µM, first compound 0.316 µM)?
**A.** 60.5%

**Q.** And the viability, T/C (second compound 0.1 µM, first compound 1 µM)?
**A.** 45%

**Q.** What about the viability, T/C (second compound 0.1 µM, first compound 3.16 µM) of the same compound?
**A.** 40.1%

**Q.** And the viability, T/C (second compound 0.1 µM, first compound 10 µM)?
**A.** 30.6%

**Q.** And the viability, T/C (second compound 0.316 µM, first compound 0.0316 µM)?
**A.** 89.7%

**Q.** What about the viability, T/C (second compound 0.316 µM, first compound 0.1 µM) of the same compound?
**A.** 63%

**Q.** What about the viability, T/C (second compound 0.316 µM, first compound 0.316 µM) of the same compound?
**A.** 43.2%

**Q.** And the viability, T/C (second compound 0.316 µM, first compound 1 µM)?
**A.** 44.8%

**Q.** What about the viability, T/C (second compound 0.316 µM, first compound 3.16 µM) of the same compound?
**A.** 33.5%

**Q.** And the viability, T/C (second compound 0.316 µM, first compound 10 µM)?
**A.** 32%

**Q.** And the viability, T/C (second compound 1 µM, first compound 0.0316 µM)?
**A.** 79.2%

**Q.** What about the viability, T/C (second compound 1 µM, first compound 0.1 µM) of the same compound?
**A.** 68.2%

**Q.** And the viability, T/C (second compound 1 µM, first compound 0.316 µM)?
**A.** 53.5%

**Q.** What about the viability, T/C (second compound 1 µM, first compound 1 µM) of the same compound?
**A.** 48.4%

**Q.** And the viability, T/C (second compound 1 µM, first compound 3.16 µM)?
**A.** 38%

**Q.** What about the viability, T/C (second compound 1 µM, first compound 10 µM) of the same compound?
**A.** 32.2%

**Q.** With C=CC(=O)Nc1cc(Nc2nccc(-c3cn(C)c4ccccc34)n2)c(OC)cc1N(C)CCN(C)C + CCn1c(-c2cc(N3CCN(C)CC3)cnc2C(C)OC)c2c3cc(ccc31)-c1csc(n1)CC(NC(=O)C1CC1C)C(=O)N1CCCC(N1)C(=O)OCC(C)(C)C2 as the compound, how does the pIC50 (second compound 0.000949 µM) read?
**A.** > 8.50

**Q.** And the pIC50 (second compound 0.003 µM)?
**A.** > 8.50

**Q.** And the pIC50 (second compound 0.00949 µM)?
**A.** > 8.50

**Q.** What about the pIC50 (second compound 0.03 µM) of the same compound?
**A.** > 8.50

**Q.** And the pIC50 (second compound 0.0949 µM)?
**A.** > 8.50

**Q.** And the pIC50 (second compound 0.3 µM)?
**A.** > 8.50

**Q.** What about the viability, T/C (second compound 0.000949 µM, first compound 0.00316 µM) of the same compound?
**A.** 30%

**Q.** And the viability, T/C (second compound 0.000949 µM, first compound 0.01 µM)?
**A.** 45%

**Q.** What about the viability, T/C (second compound 0.000949 µM, first compound 0.0316 µM) of the same compound?
**A.** 32.3%

**Q.** What about the viability, T/C (second compound 0.000949 µM, first compound 0.1 µM) of the same compound?
**A.** 27.5%

**Q.** What about the viability, T/C (second compound 0.000949 µM, first compound 0.316 µM) of the same compound?
**A.** 12.1%

**Q.** What about the viability, T/C (second compound 0.000949 µM, first compound 1 µM) of the same compound?
**A.** 4.35%

**Q.** What about the viability, T/C (second compound 0.003 µM, first compound 0.00316 µM) of the same compound?
**A.** 17.5%

**Q.** What about the viability, T/C (second compound 0.003 µM, first compound 0.01 µM) of the same compound?
**A.** 17.3%

**Q.** And the viability, T/C (second compound 0.003 µM, first compound 0.0316 µM)?
**A.** 11.2%

**Q.** What about the viability, T/C (second compound 0.003 µM, first compound 0.1 µM) of the same compound?
**A.** 4.88%

**Q.** What about the viability, T/C (second compound 0.003 µM, first compound 0.316 µM) of the same compound?
**A.** 2.22%

**Q.** And the viability, T/C (second compound 0.003 µM, first compound 1 µM)?
**A.** 1.8%

**Q.** What about the viability, T/C (second compound 0.00949 µM, first compound 0.00316 µM) of the same compound?
**A.** 4.04%

**Q.** And the viability, T/C (second compound 0.00949 µM, first compound 0.01 µM)?
**A.** 11%

**Q.** And the viability, T/C (second compound 0.00949 µM, first compound 0.0316 µM)?
**A.** 3.16%

**Q.** What about the viability, T/C (second compound 0.00949 µM, first compound 0.1 µM) of the same compound?
**A.** 3.12%

**Q.** What about the viability, T/C (second compound 0.00949 µM, first compound 0.316 µM) of the same compound?
**A.** 1.55%

**Q.** What about the viability, T/C (second compound 0.00949 µM, first compound 1 µM) of the same compound?
**A.** 1.78%

**Q.** What about the viability, T/C (second compound 0.03 µM, first compound 0.00316 µM) of the same compound?
**A.** 2.43%

**Q.** And the viability, T/C (second compound 0.03 µM, first compound 0.01 µM)?
**A.** 1.94%

**Q.** And the viability, T/C (second compound 0.03 µM, first compound 0.0316 µM)?
**A.** 1.75%

**Q.** And the viability, T/C (second compound 0.03 µM, first compound 0.1 µM)?
**A.** 2.15%

**Q.** And the viability, T/C (second compound 0.03 µM, first compound 0.316 µM)?
**A.** 2.02%

**Q.** What about the viability, T/C (second compound 0.03 µM, first compound 1 µM) of the same compound?
**A.** 1.52%

**Q.** And the viability, T/C (second compound 0.0949 µM, first compound 0.00316 µM)?
**A.** 2.3%

**Q.** And the viability, T/C (second compound 0.0949 µM, first compound 0.01 µM)?
**A.** 1.82%

**Q.** What about the viability, T/C (second compound 0.0949 µM, first compound 0.0316 µM) of the same compound?
**A.** 1.99%

**Q.** And the viability, T/C (second compound 0.0949 µM, first compound 0.1 µM)?
**A.** 2.1%

**Q.** And the viability, T/C (second compound 0.0949 µM, first compound 0.316 µM)?
**A.** 1.5%

**Q.** What about the viability, T/C (second compound 0.0949 µM, first compound 1 µM) of the same compound?
**A.** 0.91%

**Q.** What about the viability, T/C (second compound 0.3 µM, first compound 0.00316 µM) of the same compound?
**A.** 2.2%

**Q.** And the viability, T/C (second compound 0.3 µM, first compound 0.01 µM)?
**A.** 1.68%

**Q.** And the viability, T/C (second compound 0.3 µM, first compound 0.0316 µM)?
**A.** 1.82%

**Q.** And the viability, T/C (second compound 0.3 µM, first compound 0.1 µM)?
**A.** 1.46%

**Q.** And the viability, T/C (second compound 0.3 µM, first compound 0.316 µM)?
**A.** 1.28%

**Q.** And the viability, T/C (second compound 0.3 µM, first compound 1 µM)?
**A.** 0.91%
